Seven molecules from patent US20230312471A1 (priority 2020, published 2023) can be followed below.

What all share (test): biochemical
The target in assay [1] is T1, PL^pro (Severe acute respiratory syndrome coronavirus 2, UniProt P0DTD1). The format is binding, SARS-CoV-2.
The target of assay [2] is T1, PL^pro. The format is biochemical, SARS-CoV-2.
The target of the next assay is 3CL^pro (Severe acute respiratory syndrome coronavirus 2, UniProt P0DTD1). Type of assay: binding, SARS-CoV-2.
[3] abbreviates: read-out: IC50, inhibition of labelling of 3CL^pro by compound of formula (13).

Molecules are shown by their SMILES. Read-outs that look alike come from different tables or passages of the source.

As a reminder, the IC50 is the concentration that inhibits the measured activity by half.

For `COc1cc(/C=C/C(=O)CC(=O)/C=C/c2ccc(O)c(OC)c2)ccc1O` [Compound M03, curcumin], at PL^pro [1], the “Inhibition of PL^pro labelling (in words)” value is on record as “almost completely inhibited”. Further, on PL^pro [2], the “Inhibition of enzyme activity of PL^pro (in words)” value was “inhibited enzyme activity”.

As for `O=C(/C=C/c1ccc(O)c2c1[C@H](C(=O)O[C@H](Cc1ccc(O)c(O)c1)C(=O)O)[C@@H](c1ccc(O)c(O)c1)O2)O[C@H](Cc1ccc(O)c(O)c1)C(=O)O` [Compound M26, salvianolic acid B], the IC50 on 3CL^pro (setting [3]) stood at 12 µM.

Consider `S=C=NCCc1ccccc1` [Compound X05, Phenethyl isothiocyanate], for which, on 3CL^pro, half-maximal inhibition (IC50) was put at 43 µM and the “Inhibition of 3CL^pro labelling (in words)” value is given as “incomplete inhibition”. On PL^pro [1], the half-inhibitory concentration (IC50) came out at 81 µM and the “Inhibition of PL^pro labelling (in words)” value was “incomplete inhibition”. In addition, on PL^pro [2], half-maximal inhibition (IC50) required 44 µM and the “Inhibition of enzyme activity of PL^pro (in words)” value is on record as “inhibited enzyme activity”.

Molecule `O=C(/C=C/c1ccc(O)c2c1[C@H](C(=O)O)[C@@H](c1ccc(O)c(O)c1)O2)O[C@H](Cc1ccc(O)c(O)c1)C(=O)O` [lithospermic acid] registered a 50% inhibitory concentration (IC50) on 3CL^pro of 32 µM.

Molecule `O=C(/C=C/c1ccc(O)c(O)c1)O[C@H](Cc1ccc(O)c(O)c1)C(=O)O` [rosmarinic acid] returned an IC50 against 3CL^pro of 10 µM.

Take `O=C(/C=C/c1ccc(O)c(O)c1/C=C/c1ccc(O)c(O)c1)O[C@H](Cc1ccc(O)c(O)c1)C(=O)O` [salvianolic acid A]: at 3CL^pro (setting [3]), the half-maximal inhibitory concentration (IC50) is 4.8 µM.

As for `O=C(/C=C/c1ccc(O)c2oc(-c3ccc(O)c(O)c3)cc12)O[C@H](Cc1ccc(O)c(O)c1)C(=O)O` [salvianolic acid C], the concentration for half-maximal inhibition (IC50) on 3CL^pro (setting [3]) worked out at 91 µM.
